Test results taken from ChEMBL document CHEMBL1201862, “PubChem BioAssay data set” (2004).
One block for each molecule: values may come before it. The source made the active and inactive calls.

How the values were obtained:
[1] = HepG2 cell cytotoxicity, dose response, cytotoxicity control, ATP luminescence, cherry-pick, activator set 2 (AID 1053143); type: functional, cell-based
Estrogen receptor = target: T1, Estrogen receptor (Homo sapiens, UniProt P03372);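 further: potency for inhibiting coactivator peptide recruitment to the receptor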
T1 sequence (P03372 whole entry): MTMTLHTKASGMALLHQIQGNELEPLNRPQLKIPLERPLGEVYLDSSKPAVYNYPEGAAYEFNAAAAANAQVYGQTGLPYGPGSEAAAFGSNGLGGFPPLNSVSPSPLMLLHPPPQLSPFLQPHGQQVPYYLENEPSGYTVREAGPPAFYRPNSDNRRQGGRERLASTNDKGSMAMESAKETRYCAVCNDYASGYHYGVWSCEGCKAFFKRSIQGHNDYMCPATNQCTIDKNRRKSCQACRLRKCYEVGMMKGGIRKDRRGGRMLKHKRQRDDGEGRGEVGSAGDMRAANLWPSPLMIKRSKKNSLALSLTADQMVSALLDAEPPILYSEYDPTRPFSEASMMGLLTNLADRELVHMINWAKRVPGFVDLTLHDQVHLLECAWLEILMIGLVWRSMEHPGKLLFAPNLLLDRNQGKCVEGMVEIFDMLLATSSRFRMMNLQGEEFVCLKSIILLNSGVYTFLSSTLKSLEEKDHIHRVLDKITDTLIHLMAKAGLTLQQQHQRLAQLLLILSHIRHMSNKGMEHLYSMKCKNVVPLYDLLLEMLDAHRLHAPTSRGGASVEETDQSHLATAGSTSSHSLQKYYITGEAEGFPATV

Cytochrome P450 3A4 = Cytochrome P450 3A4 (Homo sapiens, UniProt P08684); conditions: Potency;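 further: confirmatory qHTS run detecting inhibitors and substrates of CYP3A4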
Sequence of Cytochrome P450 3A4 (P08684 whole entry): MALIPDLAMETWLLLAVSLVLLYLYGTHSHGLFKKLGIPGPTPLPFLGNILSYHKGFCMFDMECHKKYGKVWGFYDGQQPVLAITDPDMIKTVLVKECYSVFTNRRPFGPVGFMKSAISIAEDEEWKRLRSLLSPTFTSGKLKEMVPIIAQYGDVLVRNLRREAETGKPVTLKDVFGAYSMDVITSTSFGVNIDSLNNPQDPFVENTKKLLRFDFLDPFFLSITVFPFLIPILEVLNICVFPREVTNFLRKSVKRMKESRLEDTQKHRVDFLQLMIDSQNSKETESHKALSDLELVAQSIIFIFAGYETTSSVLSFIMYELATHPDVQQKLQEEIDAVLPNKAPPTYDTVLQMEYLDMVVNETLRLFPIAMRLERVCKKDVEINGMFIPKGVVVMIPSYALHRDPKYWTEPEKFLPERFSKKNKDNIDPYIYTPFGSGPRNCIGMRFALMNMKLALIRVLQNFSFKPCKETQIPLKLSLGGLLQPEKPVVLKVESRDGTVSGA

[2] = cytotoxicity toward NIH3T3 fibroblasts, dose response, counter-screen, cell-based, ATP luminescence, mouse fibroblasts (AID 2010); type: functional;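 further: cells exposed to compound for about 90 hours before reading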
[3] = inhibitors of intracellular T. cruzi replication, confirmation, NIH3T3 host cells, beta-gal luminescence (AID 2044); type: functional, cell-based;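 further: intracellular parasites grown in NIH/3T3 mouse fibroblasts as host cells; luminescent beta-galactosidase reporter signal from transgenic T. cruzi replicating inside host cells; inhibitors lower the luminescence signal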
cells [4] = assay: cells
fMet-Leu-Phe receptor = target: T2, fMet-Leu-Phe receptor (Homo sapiens, UniProt P21462); assay: FPR ligands, dose response (AID 519); type: functional
T2 sequence (P21462 whole entry): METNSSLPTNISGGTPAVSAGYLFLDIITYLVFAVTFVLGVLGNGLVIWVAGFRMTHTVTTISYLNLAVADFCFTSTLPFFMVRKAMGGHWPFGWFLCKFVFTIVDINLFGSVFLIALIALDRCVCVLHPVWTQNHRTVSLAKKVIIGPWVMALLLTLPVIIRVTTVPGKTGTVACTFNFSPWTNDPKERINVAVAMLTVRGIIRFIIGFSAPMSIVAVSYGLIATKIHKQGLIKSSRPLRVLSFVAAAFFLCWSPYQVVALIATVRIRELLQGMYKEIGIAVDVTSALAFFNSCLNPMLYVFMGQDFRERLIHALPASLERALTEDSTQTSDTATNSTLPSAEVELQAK

cells [5] = type: functional, cell-based
cells [6] = type: functional, cell-based; remark: listed apart in the source
[7] = target: Disintegrin and metalloproteinase domain-containing protein 17 (Homo sapiens, UniProt P78536); assay: exosite inhibitors of ADAM17, dose response, biochemical (AID 743260)
Sequence of Disintegrin and metalloproteinase domain-containing protein 17 (P78536 whole entry, the tested form may be a part): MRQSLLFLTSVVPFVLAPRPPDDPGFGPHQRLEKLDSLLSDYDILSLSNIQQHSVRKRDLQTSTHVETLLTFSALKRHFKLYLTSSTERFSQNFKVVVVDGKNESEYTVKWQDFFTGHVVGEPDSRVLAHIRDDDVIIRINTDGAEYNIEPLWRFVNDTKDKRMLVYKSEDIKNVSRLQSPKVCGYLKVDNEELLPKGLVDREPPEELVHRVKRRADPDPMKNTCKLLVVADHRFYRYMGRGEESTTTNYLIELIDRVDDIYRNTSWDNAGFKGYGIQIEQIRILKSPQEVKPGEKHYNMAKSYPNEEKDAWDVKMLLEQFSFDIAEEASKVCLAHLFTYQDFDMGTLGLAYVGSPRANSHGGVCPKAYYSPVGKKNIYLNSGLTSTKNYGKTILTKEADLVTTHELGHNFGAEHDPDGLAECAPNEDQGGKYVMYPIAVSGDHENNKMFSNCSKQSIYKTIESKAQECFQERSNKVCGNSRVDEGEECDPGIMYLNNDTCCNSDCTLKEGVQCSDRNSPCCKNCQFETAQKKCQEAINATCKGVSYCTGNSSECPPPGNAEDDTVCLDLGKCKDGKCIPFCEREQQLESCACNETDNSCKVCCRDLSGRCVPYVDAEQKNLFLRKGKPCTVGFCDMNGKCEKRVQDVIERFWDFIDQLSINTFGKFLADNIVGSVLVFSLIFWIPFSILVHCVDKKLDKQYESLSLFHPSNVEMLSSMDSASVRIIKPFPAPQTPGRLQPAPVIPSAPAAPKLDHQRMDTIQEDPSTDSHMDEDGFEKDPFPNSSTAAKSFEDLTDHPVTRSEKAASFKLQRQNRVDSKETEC

[8] = ADAM10 protease inhibitors, dose response, selectivity assay for ADAM17 exosite inhibitor project, biochemical, FRET peptide substrate, recombinant human ADAM10 (AID 743259);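 further: ADAM10 enzyme cleaving a FRET peptide substrate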
[9] = target: T3, Corticotropin-releasing factor receptor 2/Corticotropin-releasing factor-binding protein (Homo sapiens, UniProt P24387+Q13324); assay: Dose Response confirmation of uHTS hits for small molecule antagonists of the CRF-binding protein and CRF-R2 receptor complex.; type: functional; conditions: read-out: IC50_Mean
T3 sequence (Q13324 whole entry): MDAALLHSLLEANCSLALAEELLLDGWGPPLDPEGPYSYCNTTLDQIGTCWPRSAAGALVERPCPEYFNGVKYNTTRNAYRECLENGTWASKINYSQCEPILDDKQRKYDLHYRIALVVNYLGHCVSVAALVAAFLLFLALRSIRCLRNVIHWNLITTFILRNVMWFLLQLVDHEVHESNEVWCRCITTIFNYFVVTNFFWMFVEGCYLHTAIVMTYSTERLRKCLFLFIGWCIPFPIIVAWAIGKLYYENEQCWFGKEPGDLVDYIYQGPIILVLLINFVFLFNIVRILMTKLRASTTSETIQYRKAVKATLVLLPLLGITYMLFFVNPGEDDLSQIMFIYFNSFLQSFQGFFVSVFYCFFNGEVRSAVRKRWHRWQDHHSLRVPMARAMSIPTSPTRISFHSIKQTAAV
T3 sequence (P24387 whole entry): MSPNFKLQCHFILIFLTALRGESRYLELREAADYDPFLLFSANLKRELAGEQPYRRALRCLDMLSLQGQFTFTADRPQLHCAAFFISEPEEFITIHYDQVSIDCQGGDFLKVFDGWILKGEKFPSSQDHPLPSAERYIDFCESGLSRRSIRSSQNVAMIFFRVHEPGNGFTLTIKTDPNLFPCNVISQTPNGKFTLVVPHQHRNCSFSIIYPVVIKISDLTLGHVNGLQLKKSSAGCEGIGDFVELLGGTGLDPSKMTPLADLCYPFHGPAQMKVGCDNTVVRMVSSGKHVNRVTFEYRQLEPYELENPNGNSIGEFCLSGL

[10] = target: T3, Corticotropin-releasing factor receptor 2/Corticotropin-releasing factor-binding protein; assay: activators of CRF receptor 2 with binding protein – uHTS hits, confirmation (AID 602473); type: functional; conditions: read-out: EC50_Mean
[11] = CRF-BP/CRF-R2 complex antagonists, dose response, cell-based, uHTS hits, 384-well (AID 651639); type: functional, Homo sapiens; conditions: read-out: IC50_Mean
[12] = target: T4, Calpain-2 catalytic subunit (Sus scrofa, UniProt P43367); assay: pig calpain II inhibitor potency, dose response, biochemical, fluorogenic peptide substrate (AID 1420); type: functional
T4 sequence (P43367 whole entry): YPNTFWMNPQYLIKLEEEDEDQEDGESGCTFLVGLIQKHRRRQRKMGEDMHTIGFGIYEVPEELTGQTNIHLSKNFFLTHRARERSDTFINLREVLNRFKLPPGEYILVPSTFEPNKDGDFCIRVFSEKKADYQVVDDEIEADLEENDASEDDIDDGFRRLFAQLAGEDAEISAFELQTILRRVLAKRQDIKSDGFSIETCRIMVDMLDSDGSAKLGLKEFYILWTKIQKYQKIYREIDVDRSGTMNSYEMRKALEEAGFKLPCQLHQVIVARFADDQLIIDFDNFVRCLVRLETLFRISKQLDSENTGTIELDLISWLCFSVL

SMILES: Cc1ccc(C(=O)Nc2nc3ccc(S(C)(=O)=O)cc3s2)o1
- AC50 [1]: 26 µM (active)

- IC50 (Estrogen receptor): 25.9 µM (active)
SMILES: NC(=O)c1c(NC(=O)c2cccs2)sc2c1CCCCCC2

- AC50 (Cytochrome P450 3A4): 3.98 µM (inconclusive)
SMILES: COC(=O)C/C=C/C(C)C(OCc1cccc(-c2ccccc2)c1)C1CCCCC1 (stereo not given)

SMILES: CSc1ccc(CN2CCN(Cc3ccc([N+](=O)[O-])cc3)CC2)cc1
- EC50 [2]: > 60 µM (inconclusive)
- EC50 [3]: < 0.1 µM (active)
- EC50 (cells [4]): 0.135 µM (active)

- Ki (fMet-Leu-Phe receptor): 32.9 µM (inactive)
SMILES: COc1ccc(-n2c(Cc3cccn3C)nnc2SCC(=O)Nc2ccc(Cl)cc2)cc1

- IC50 (Estrogen receptor): 17.1 µM (active)
SMILES: Cc1csc2nc(CCNS(=O)(=O)c3ccc4c(c3)OCCO4)cn12

SMILES: COc1ccc(CCNC(=O)c2cc(-c3ccco3)on2)cc1OC
- AC50 [1]: 26 µM (active)
- EC50 (cells [5]): 12.5 µM (active)
- EC50 (cells [6]): > 350 µM (not active)

- IC50 [7]: > 69.5 µM (inactive)
SMILES: Cc1ccc(C(C(=O)NC2CCCCC2)N(Cc2ccccc2)C(=O)Cc2c[nH]c3ccccc23)o1 (stereo not given)
- IC50 [8]: 10.3 µM (inactive)

- IC50 [9]: 9.05 µM (active)
- EC50 [10]: > 53 µM (inactive)
- IC50 [11]: 20 µM (active)
- IC50 [7]: > 69.5 µM (inactive)
- IC50 [12]: 41 µM (not active)
SMILES: COc1cccc(CNc2ccc([N+](=O)[O-])cc2C)c1
- IC50 [8]: 27.4 µM (inactive)

- Ki (fMet-Leu-Phe receptor): 8.5 µM (active)
SMILES: CC(C)CN(CC(C)C)C(=O)CS(=O)(=O)Cc1ccccc1
